Test system: 429239-143-T-J1-PDC complex spheroid viability
Assay: Anticancer human tumor 429239-143-T-J1-PDC patient-derived small cell lung carcinoma cell line growth inhibition [POLQ]
Conditions: for IC50: curve of first compound; for viability, T/C: stronger effect = lower value
In short: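 Three-cell-type spheroids modelling solid tumor plus stroma served as the readout system; POL inhibitors were tested individually and in combination, concentration ranges set by clinical Cmax where known.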

[1] = second compound 0.0316 µM, first compound 0.0316 µM
[2] = second compound 0.0316 µM, first compound 0.1 µM
[3] = second compound 0.0316 µM, first compound 0.316 µM
[4] = second compound 0.0316 µM, first compound 1 µM
[5] = second compound 0.0316 µM, first compound 3.16 µM
[6] = second compound 0.0316 µM, first compound 10 µM
[7] = second compound 0.1 µM, first compound 0.0316 µM
[8] = second compound 0.1 µM, first compound 0.1 µM
[9] = second compound 0.1 µM, first compound 0.316 µM
[10] = second compound 0.1 µM, first compound 1 µM
[11] = second compound 0.1 µM, first compound 3.16 µM
[12] = second compound 0.1 µM, first compound 10 µM
[13] = second compound 0.316 µM, first compound 0.0316 µM
[14] = second compound 0.316 µM, first compound 0.1 µM
[15] = second compound 0.316 µM, first compound 0.316 µM
[16] = second compound 0.316 µM, first compound 1 µM
[17] = second compound 0.316 µM, first compound 3.16 µM
[18] = second compound 0.316 µM, first compound 10 µM
[19] = second compound 1 µM, first compound 0.0316 µM
[20] = second compound 1 µM, first compound 0.1 µM
[21] = second compound 1 µM, first compound 0.316 µM
[22] = second compound 1 µM, first compound 1 µM
[23] = second compound 1 µM, first compound 3.16 µM
[24] = second compound 1 µM, first compound 10 µM
[25] = second compound 3.16 µM, first compound 0.0316 µM
[26] = second compound 3.16 µM, first compound 0.1 µM
[27] = second compound 3.16 µM, first compound 0.316 µM
[28] = second compound 3.16 µM, first compound 1 µM
[29] = second compound 3.16 µM, first compound 3.16 µM
[30] = second compound 3.16 µM, first compound 10 µM
[31] = second compound 10 µM, first compound 0.0316 µM
[32] = second compound 10 µM, first compound 0.1 µM
[33] = second compound 10 µM, first compound 0.316 µM
[34] = second compound 10 µM, first compound 1 µM
[35] = second compound 10 µM, first compound 3.16 µM
[36] = second compound 10 µM, first compound 10 µM
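Further: luminescence signal used as surrogate measure of viable cells; spheroids exposed to compounds for seven days before readout.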
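Wherever viability, T/C is given: 100% = DMSO vehicle control viability as luminescence relative to vehicle.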

With `CCCS(=O)(=O)Nc1ccc(F)c(C(=O)c2c[nH]c3ncc(-c4ccc(Cl)cc4)cc23)c1F` + Nc1ccc(C#CCN(C(=O)Cc2ncc(C(F)(F)F)cc2C(F)(F)F)c2ccc(F)cc2)nn1 the IC50 (second compound 0.0316 µM) was > 10 µM, the IC50 (second compound 0.1 µM) was > 10 µM and the IC50 (second compound 0.316 µM) was > 10 µM. For the same compound, the IC50 (second compound 1 µM) was > 10 µM, the IC50 (second compound 3.16 µM) was > 10 µM and the IC50 (second compound 10 µM) was > 10 µM. It also gave a viability, T/C [1] of 99%, a viability, T/C [2] of 111% and a viability, T/C [3] of 101%. For the same compound, the viability, T/C [4] was 110%, the viability, T/C [5] was 104% and the viability, T/C [6] was 93.3%. It also gave a viability, T/C [7] of 106%, a viability, T/C [8] of 102% and a viability, T/C [9] of 96.9%. For the same compound, the viability, T/C [10] was 100%, the viability, T/C [11] was 98.3% and the viability, T/C [12] was 88.7%. It also gave a viability, T/C [13] of 105%, a viability, T/C [14] of 108% and a viability, T/C [15] of 106%. It also gave a viability, T/C [16] of 106%, a viability, T/C [17] of 108% and a viability, T/C [18] of 93.4%. For the same compound, the viability, T/C [19] was 114%, the viability, T/C [20] was 99.5% and the viability, T/C [21] was 97.4%. The viability, T/C [22] was 104%, the viability, T/C [23] was 112% and the viability, T/C [24] was 91%. The viability, T/C [25] was 105%, the viability, T/C [26] was 104% and the viability, T/C [27] was 94.6%. For the same compound, the viability, T/C [28] was 102%, the viability, T/C [29] was 101% and the viability, T/C [30] was 94.9%. For the same compound, the viability, T/C [31] was 116%, the viability, T/C [32] was 98.3% and the viability, T/C [33] was 105%. The viability, T/C [34] was 108%, the viability, T/C [35] was 102% and the viability, T/C [36] was 89.1%.
Compound `CC[C@@]1(O)C(=O)OCc2c1cc1n(c2=O)Cc2cc3c(CN(C)C)c(O)ccc3nc2-1` + Nc1ccc(C#CCN(C(=O)Cc2ncc(C(F)(F)F)cc2C(F)(F)F)c2ccc(F)cc2)nn1 has an IC50 (second compound 0.0316 µM) of 0.0169 µM, an IC50 (second compound 0.1 µM) of 0.0173 µM and an IC50 (second compound 0.316 µM) of 0.0179 µM. For the same compound, the IC50 (second compound 1 µM) was 0.0167 µM, the IC50 (second compound 3.16 µM) was 0.0177 µM and the IC50 (second compound 10 µM) was 0.0177 µM. The viability, T/C (second compound 0.0316 µM, first compound 0.000316 µM) was 95.7%, the viability, T/C (second compound 0.0316 µM, first compound 0.001 µM) was 103% and the viability, T/C (second compound 0.0316 µM, first compound 0.00316 µM) was 106%. For the same compound, the viability, T/C (second compound 0.0316 µM, first compound 0.01 µM) was 84.2%, the viability, T/C [1] was 9.5% and the viability, T/C [2] was 5.15%. It also gave a viability, T/C (second compound 0.1 µM, first compound 0.000316 µM) of 103%, a viability, T/C (second compound 0.1 µM, first compound 0.001 µM) of 95.5% and a viability, T/C (second compound 0.1 µM, first compound 0.00316 µM) of 103%. The viability, T/C (second compound 0.1 µM, first compound 0.01 µM) was 86.9%, the viability, T/C [7] was 9.05% and the viability, T/C [8] was 5.15%. The viability, T/C (second compound 0.316 µM, first compound 0.000316 µM) was 101%, the viability, T/C (second compound 0.316 µM, first compound 0.001 µM) was 106% and the viability, T/C (second compound 0.316 µM, first compound 0.00316 µM) was 96.5%. The viability, T/C (second compound 0.316 µM, first compound 0.01 µM) was 92.5%, the viability, T/C [13] was 7.36% and the viability, T/C [14] was 9.85%. For the same compound, the viability, T/C (second compound 1 µM, first compound 0.000316 µM) was 107%, the viability, T/C (second compound 1 µM, first compound 0.001 µM) was 100% and the viability, T/C (second compound 1 µM, first compound 0.00316 µM) was 99.6%. For the same compound, the viability, T/C (second compound 1 µM, first compound 0.01 µM) was 82.9%, the viability, T/C [19] was 8.94% and the viability, T/C [20] was 5.82%. For the same compound, the viability, T/C (second compound 3.16 µM, first compound 0.000316 µM) was 101%, the viability, T/C (second compound 3.16 µM, first compound 0.001 µM) was 98% and the viability, T/C (second compound 3.16 µM, first compound 0.00316 µM) was 99.8%. It also gave a viability, T/C (second compound 3.16 µM, first compound 0.01 µM) of 89.3%, a viability, T/C [25] of 9.67% and a viability, T/C [26] of 5.18%. The viability, T/C (second compound 10 µM, first compound 0.000316 µM) was 104%, the viability, T/C (second compound 10 µM, first compound 0.001 µM) was 103% and the viability, T/C (second compound 10 µM, first compound 0.00316 µM) was 93.5%. For the same compound, the viability, T/C (second compound 10 µM, first compound 0.01 µM) was 87.8%, the viability, T/C [31] was 11.9% and the viability, T/C [32] was 7.53%.
Compound `CNCc1ccc(-c2[nH]c3cc(F)cc4c3c2CCNC4=O)cc1` + Nc1ccc(C#CCN(C(=O)Cc2ncc(C(F)(F)F)cc2C(F)(F)F)c2ccc(F)cc2)nn1 has an IC50 (second compound 0.0316 µM) of 6.53 µM, an IC50 (second compound 0.1 µM) of 6.07 µM and an IC50 (second compound 0.316 µM) of 6.32 µM. For the same compound, the IC50 (second compound 1 µM) was 5.54 µM, the IC50 (second compound 3.16 µM) was 6.09 µM and the IC50 (second compound 10 µM) was 5.96 µM. The viability, T/C [1] was 98.7%, the viability, T/C [2] was 99.6% and the viability, T/C [3] was 97.7%. The viability, T/C [4] was 94.6%, the viability, T/C [5] was 82.4% and the viability, T/C [6] was 30.9%. The viability, T/C [7] was 92.7%, the viability, T/C [8] was 88.4% and the viability, T/C [9] was 90.6%. For the same compound, the viability, T/C [10] was 86.8%, the viability, T/C [11] was 80.6% and the viability, T/C [12] was 26.5%. For the same compound, the viability, T/C [13] was 97.2%, the viability, T/C [14] was 94.7% and the viability, T/C [15] was 98.5%. The viability, T/C [16] was 93.5%, the viability, T/C [17] was 79.4% and the viability, T/C [18] was 30.6%. It also gave a viability, T/C [19] of 106%, a viability, T/C [20] of 96.1% and a viability, T/C [21] of 86.3%. The viability, T/C [22] was 84.8%, the viability, T/C [23] was 79.3% and the viability, T/C [24] was 24%. For the same compound, the viability, T/C [25] was 104%, the viability, T/C [26] was 92.2% and the viability, T/C [27] was 94.7%. It also gave a viability, T/C [28] of 90.7%, a viability, T/C [29] of 75.1% and a viability, T/C [30] of 31.4%. It also gave a viability, T/C [31] of 101%, a viability, T/C [32] of 80.5% and a viability, T/C [33] of 87.6%. The viability, T/C [34] was 83%, the viability, T/C [35] was 81.8% and the viability, T/C [36] was 24.1%.

Source: PubChem BioAssay AID1963845 (Molecular Pharmacology Branch, DTP, NCI, 2024)
